Bounds are passed on as bounds.

The term IC50 denotes the midpoint of a concentration-inhibition curve.

The subject of series [1] is lymphoma and myeloma cell lines. Briefly: Titration of the optimal concentration. Particulars: without significantly deteriorating viability of normal PBMCs, data not shown. Type of series: cell-based, human. An excerpt:
As a first step, we determined the optimal concentration of EA in various lymphoma and myeloma cell lines. Subsequently, we determined the optimal concentration of EA in PBMCs derived from healthy individuals in order to check for toxicity. […] The effect of DMSO as a toxic solvent was only observed in the myeloma cell line OPM-2 (Figure 1C). As a control, peripheral blood mononuclear cells (PBMCs) were investigated by FACS analysis. A toxic effect affecting the cells induced a shift from viable, DiOC6-positive cells to apoptotic, DiOC6-negative cells.
(§1) Experiments were performed as reported recently.
As a first step, we determined the optimal concentration of CIC in various lymphoma and myeloma cell lines. Subsequently, we determined the optimal concentration of CIC in PBMCs derived from healthy individuals in order to check for toxicity. […] The effect of DMSO as a toxic solvent was only observed in the myeloma cell line OPM-2 (Fig. 7C). As a control, peripheral blood mononuclear cells (PBMCs) were investigated by FACS analysis. A toxic effect affecting the cells induced a shift from viable, DiOC6-positive cells to apoptotic, DiOC6-negative cells.

Series [2] deals with OPM-2, U266 and RPMI 8226 cells. The series is described as follows: Cell viability by DiOC6 staining in myeloma cell lines (mean IC50, combinations). It counts as cell-based, human. Particulars: Homo sapiens; mean of the IC50 results in OPM-2, U266 and RPMI 8226 cells. As to the method:
A mean IC50 value in myeloma cells was determined using the mean of the IC50 results determined in OPM-2, U266 and RPMI 8226 cells.
(§2) • Figure 1. […] Data are shown as mean ± SD. • Figure 2. […] Data are shown as mean ± SD. • Figure 3. […] (A) Flow cytometric results. […] Finally, ECL reagent was utilized for detection. • Figure 4C. […] Finally, ECL reagent was utilized for detection. • Figure 5. Effect of EA on viability of myeloma primary cells. […] Results represent data from two separate experiments. Data are shown as mean. • Figure 6. […] (A) Tumor growth and (B) overall survival were measured. Six animals were assayed per group.
Experiments were performed as reported recently. […]

The next series has as its system OPM-2 myeloma cells. The series is described as follows: Cell viability by DiOC6 staining, flow cytometry. It counts as cell-based, human. Particulars: Homo sapiens, 72 h; OPM-2; 1x10^5 cells cultured three days, various concentrations. As to the method:
as §1
PBL derived from healthy individuals were used as controls. […] ND, not done.
In general terms: In flow cytometry, cells or beads pass a laser one at a time.

In series [3] the test system is β-catenin. Briefly: Western blot, β-catenin expression in RPMI 8226 cells. It counts as cell-based, human. Conditions: RPMI 8226 cells treated for 24h. As to the method:
(§3) Western blot was performed as described recently^16.
as §2
(§4) Western blot was performed as described recently.
(§5) • Figure 7. […] Data are shown as mean ± SD. • Figure 8. […] Data are shown as mean ± SD. • Figure 9. Effect of CIC on the Wnt/beta catenin pathway. (A) Flow cytometric results. […] Finally, ECL reagent was utilized for detection. • Figure 10C. […] Finally, ECL reagent was utilized for detection. • Figure 11. […] (A) Tumor growth and (B) overall survival were measured. Six animals were assayed per group. HD CIC.
(In general: Immunoblotting shows a protein as a band on a membrane.)

For another series, the system named is primary CLL cells. Particulars: earlier work of the group; cited from earlier work.
Another series has as its system beta catenin. Briefly: Western blot, Wnt/beta catenin pathway in lymphoma cells. It counts as cell-based, human. As to the method:
as §3, §2, §4, §5

Series [4] has as its system primary myeloma cells derived from bone marrow from patients with multiple myeloma. The series is described as follows: Viability of myeloma primary cells from bone marrow. It counts as cell-based, human. Conditions: incubated three days; preliminary data. As to the method: Bone marrow samples from patients with myeloma were taken after informed consent, single cell suspensions generated and cells ficolled. Cells were incubated with or without EA for three days and measured for viability.
as §2
Bone marrow samples from patients with myeloma were taken after informed consent, single cell suspensions generated and cells ficolled. Cells were incubated with or without CIC for three days and measured for viability.
Bone marrow samples from patients with myeloma were taken after informed consent, single cell suspensions generated and cells ficolled. Cells were incubated with or without GF for three days and measured for viability.

For another series, the system named is Wnt/beta catenin. Particulars: Gen-plus drug library, 960 compounds; cited from earlier work.
Another series relates to PBMC. The series is described as follows: Cell viability by DiOC6 staining, flow cytometry (normal control cells). Type of series: cell-based, human. As to the method:
PBMCs were isolated from blood of healthy donors by Ficoll-Hypaque density gradient centrifugation. Blood from buffy coats was mixed 1:2 with PBS/1% BSA (both PAA, Cölbe, Germany) and used for a ficoll gradient (LymphoPrep, PAA, Cölbe, Germany). After the centrifugation at 800 g for 30 minutes, the leukocyte layer was removed and transferred to new tubes. Subsequently, these cells were washed 3 times with PBS/1%BSA and re-suspended in fresh medium, consisting of RPMI medium (PAA, Cölbe, Germany) with 10% fetal calf serum (Invitrogen, Karlsruhe, Germany), 2.5% hepes buffer solution (PAA, Cölbe, Germany), and 1% penicillin/streptomycin (PAA, Cölbe, Germany).
as §1

The subject of series [5] is β-catenin. The series is described as follows: Western blot, β-catenin expression in KMS-18 cells. Conditions: KMS-18 cells treated for 24h. It counts as cell-based, human. As to the method:
as §3, §2, §4, §5

Turning to `C=C(CC)C(=O)c1ccc(OCC(=O)O)c(Cl)c1Cl` [EA, 2-[2,3-dichloro-4-(2-methylidenebutanoyl)phenoxy] acetic acid], in series [1], the “most effective concentration to initialize cell death” value was 30 µM. Further, the half-inhibitory concentration (IC50) is 30 µM in [2]; 22 µM in the series with OPM-2 myeloma cells; above 400 µM with PBMC (Homo sapiens, 72 h, PBMC from healthy individuals, three days). In addition, the β-catenin expression result is “slightly increased” in the series with β-catenin [3] and “increased” in the series on β-catenin [5]. Further, the “cell death in primary CLL cells” value with primary CLL cells is listed as “selectively induced cell death”. Besides, in the series on beta catenin, the “beta catenin expression in lymphoma cells” value is given as “down regulated”. Also, the “growth of primary myeloma cells” value in series [4] is reported as “inhibits the growth”. The “identified in TOPflash reporter screen” value in the series on Wnt/beta catenin is listed as “Wnt/beta catenin inhibitors”.
Take `Cc1cc(C2CCCCC2)n(O)c(=O)c1` [CIC, ciclopirox olamine]: the “most effective concentration to initialize cell death” value in series [1] amounted to 30 µM. The IC50 in series [2] is 30 µM; with OPM-2 myeloma cells it was 5 µM; with PBMC (Homo sapiens, PBMC, after 72 h) it was above 400 µM; with PBMC (PBMC from healthy individuals, three days) it was above 400 µM. Moreover, the β-catenin expression entry in the series on β-catenin [3] is “slightly decreased”; in the series on β-catenin [5], “decreased”. In the series on primary CLL cells, the “cell death in primary CLL cells” value is “selectively induced cell death”. In addition, the “beta catenin expression in lymphoma cells” value with beta catenin was “down regulated”. Also, the “growth of primary myeloma cells” value in series [4] is “inhibits the growth”. The “identified in TOPflash reporter screen” value in the series with Wnt/beta catenin was “Wnt/beta catenin inhibitors”. For the same molecule, the “effect on normal PBMC and PBL” value in the series on PBMC (normal PBMC and PBL, result in words) is “marginal”.

(Values after patent EP3318253B1, “COMPOSITIONS COMPRISING WNT INHIBITORS FOR TREATING CANCER” (Schmidt-Wolf, Ingo, priority 2010, dated 2012).)
